From PubChem BioAssay (NCI)
Where “and” joins values, the source holds several entries; their conditions need not be identical. Identical values can stand only once.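 Each compound was tested at five concentrations against cells in 96-well plates for 48 hours. GI50: concentration for 50% inhibition of growth. The concentration for full growth arrest is given as TGI.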

What was measured:
Experiment in all cases: NCI-60 cell line screen, 48 h
SK-MEL-2 melanoma = system: SK-MEL-2 melanoma
LOX IMVI melanoma = system: LOX IMVI melanoma
UACC-62 melanoma = system: UACC-62 melanoma
OVCAR-5 ovarian = system: OVCAR-5 ovarian
HL-60(TB) leukemia = system: HL-60(TB) leukemia
UO-31 renal = system: UO-31 renal
HCC-2998 colon = system: HCC-2998 colon
MDA-MB-231 breast = system: MDA-MB-231 breast

Structure (SMILES)	TGI (SK-MEL-2 melanoma)	TGI (LOX IMVI melanoma) [µM]	TGI (UACC-62 melanoma) [µM]	TGI (OVCAR-5 ovarian)	TGI (HL-60(TB) leukemia) [µM]	TGI (UO-31 renal)	TGI (HCC-2998 colon) [µM]	TGI (MDA-MB-231 breast) [µM]	GI50 (SK-MEL-2 melanoma) [nM]	GI50 (LOX IMVI melanoma) [nM]	GI50 (UACC-62 melanoma) [nM]	GI50 (OVCAR-5 ovarian) [nM]	GI50 (HCC-2998 colon) [nM]	GI50 (MDA-MB-231 breast) [nM]
COc1cc(-c2nc3cc(F)ccc3s2)ccc1O	> 100 µM	> 100	> 100	> 100 µM	> 100	> 100 µM	55.5	> 100	–	–	–	–	–	–
C=CC[C@H]1[C@@H](O[Si](C)(C)C(C)(C)C)[C@H](n2ccc(=O)[nH]c2=O)O[C@@H]1CO[Si](C)(C)C(C)(C)C	7.08 µM	3.44	3.5	3.91 µM	2.59	3.65 µM	3.74	5.4	–	–	–	–	–	–
NCCC(N)C(=O)O (stereo not given)	> 100 µM	> 100	> 100	> 100 µM	> 100	> 100 µM	–	> 100	–	–	–	–	–	–
CC(C)(CN)CN	> 100 µM	> 100	> 100	> 100 µM	> 100	> 100 µM	> 100	> 100	–	–	–	–	–	–
COc1ccc(CCn2cnc3ccccc32)cc1	> 100 µM	–	> 100	> 100 µM	> 100	> 100 µM	> 100	> 100	–	–	–	–	–	–
Cn1c(=O)c2c(nc(NCCCCl)n2CC(=O)O)n(C)c1=O	> 100 µM	> 100	> 100	> 100 µM	> 100	> 100 µM	> 100	> 100	–	–	–	–	–	–
CC(C)C[C@H](NC(=O)[C@H](Cc1cccc2ccccc12)NC(=O)N1CCOCC1)B(O)O	0.00251 µM and < 0.0159 µM	0.00304	0.00338	0.00534 µM and < 0.0405 µM	–	0.159 µM and 0.211 µM	0.00302	0.00398	0.68	1.14	1.29	1.86	1.58	1.88
COc1ccc(N[C@H](CS(=O)c2ccc(C)cc2)c2ccc(F)cc2)cc1 (stereo not given in full)	> 100 µM	> 100	> 100	> 100 µM	–	> 100 µM	> 100	> 100	–	–	–	–	–	–
COc1ccc2c(c1)OC(c1cccnc1)C(c1ccccc1)C2=O (stereo not given)	> 100 µM	> 100	> 100	> 100 µM	> 100	> 100 µM	> 100	> 100	–	–	–	–	–	–
Cc1ccc([N+](=O)[O-])cc1S(=O)(=O)Nc1ccc(C2=NN(c3ccc([N+](=O)[O-])cc3[N+](=O)[O-])C(c3ccccc3)C2)cc1 (stereo not given)	33.7 µM	32.2	–	50.1 µM	57.5	31.3 µM	–	33.4	–	–	–	–	–	–
O=[N+]([O-])c1cccc(-c2csc(N=Nc3c(O)[nH]c4ccccc34)n2)c1	> 100 µM	42.5	> 100	> 100 µM	50.2	> 100 µM	32	39.5	–	–	–	–	–	–
c1ccc2c(-c3cnc(-c4c[nH]c5ccccc45)cn3)c[nH]c2c1	> 100 µM	94.2	> 100	> 100 µM	–	> 100 µM	> 100	> 100	–	–	–	–	–	–
